The results in this text go back to PubChem BioAssay (NCI).

The structures appear in SMILES notation.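 Where inhibition never reached the appropriate level, the endpoint shown equals the highest concentration tested. Otherwise, values were interpolated linearly from a five-concentration, 48-hour dose response in 96-well plates. TGI marks complete inhibition of growth.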

Some test systems named below: OVCAR-5 ovarian; MDA-MB-435; SK-MEL-2 melanoma; NCI-H23 lung; SN12C renal; SNB-19 CNS; DU-145 prostate; HCT-15 colon; OVCAR-4 ovarian; HCC-2998 colon; NCI-H460 lung; LOX IMVI melanoma; HL-60(TB) leukemia.
Common to all, as to assay: NCI tumour cell line growth inhibition, 48 h

Regarding `O=C(NNc1nc(-c2ccccc2)cs1)Nc1ccccc1`, the TGI is more than 100 µM with OVCAR-5 ovarian; 65.8 µM with MDA-MB-435; 44.6 µM in the assay on SK-MEL-2 melanoma; 41.2 µM with NCI-H23 lung; 97.8 µM in the assay with SN12C renal; more than 100 µM in the assay on SNB-19 CNS. Besides, the TGI with DU-145 prostate was 89.1 µM; in the assay on HCT-15 colon, 74.4 µM; with OVCAR-4 ovarian, 88.5 µM; with HCC-2998 colon, 70.6 µM; with NCI-H460 lung it was 50.6 µM.

Regarding `COC(=O)C(CNC(=O)/C=C/c1ccc(OC(C)=O)c(OC(C)=O)c1)NC(=O)/C=C/c1ccc(OC(C)=O)c(OC(C)=O)c1` (stereo not drawn), the TGI in the assay on OVCAR-5 ovarian, with LOX IMVI melanoma, in the assay on MDA-MB-435, in the assay on SK-MEL-2 melanoma, in the assay on NCI-H23 lung and with SN12C renal was more than 100 µM throughout. The TGI in the assay with SNB-19 CNS, with DU-145 prostate, in the assay with HCT-15 colon, in the assay with OVCAR-4 ovarian, with HCC-2998 colon and in the assay with NCI-H460 lung was more than 100 µM each time.

As for `Nc1ccn(CC(O)c2cc3ccccc3[nH]2)c(=O)n1` (stereo not drawn), the TGI with OVCAR-5 ovarian, in the assay with LOX IMVI melanoma, in the assay with MDA-MB-435, in the assay with SK-MEL-2 melanoma, with HL-60(TB) leukemia and in the assay with NCI-H23 lung was more than 100 µM throughout. For the same compound, the TGI in the assay with SN12C renal, in the assay with SNB-19 CNS, with DU-145 prostate, in the assay with HCT-15 colon, in the assay with OVCAR-4 ovarian and in the assay on HCC-2998 colon was more than 100 µM in each case. The compound also registered a TGI in the assay on NCI-H460 lung of more than 100 µM.

In the case of `CC(C)(CO)CNc1cc(Cl)nc(N)n1`, the TGI in the assay on OVCAR-5 ovarian, in the assay with LOX IMVI melanoma, in the assay on MDA-MB-435, in the assay with SK-MEL-2 melanoma, in the assay on HL-60(TB) leukemia and in the assay on NCI-H23 lung was more than 100 µM throughout. Besides, the TGI in the assay on SN12C renal, in the assay with DU-145 prostate, in the assay on HCT-15 colon, with OVCAR-4 ovarian, in the assay with HCC-2998 colon and in the assay with NCI-H460 lung was more than 100 µM throughout.

Regarding `O=C1/C(=C/c2ccc(O)cc2)Oc2ccccc21`, the TGI in the assay on OVCAR-5 ovarian was more than 100 µM; in the assay on LOX IMVI melanoma it was more than 100 µM; in the assay on MDA-MB-435 it was more than 100 µM; in the assay with SK-MEL-2 melanoma it was more than 100 µM; in the assay on HL-60(TB) leukemia it was 92.9 µM; in the assay with NCI-H23 lung, more than 100 µM. For the same compound, the TGI in the assay on SN12C renal, with SNB-19 CNS, in the assay with DU-145 prostate, in the assay on HCT-15 colon, with OVCAR-4 ovarian and in the assay with HCC-2998 colon was more than 100 µM in each case. For the same compound, the TGI with NCI-H460 lung is more than 100 µM.

`CC(C)OP(=O)(OC(C)C)/C(C#N)=C/c1c[nH]c2ccccc12`: the TGI with OVCAR-5 ovarian, in the assay on LOX IMVI melanoma, with MDA-MB-435, with SK-MEL-2 melanoma, with HL-60(TB) leukemia and with NCI-H23 lung was more than 100 µM each time. For the same compound, the TGI in the assay with SN12C renal, in the assay on SNB-19 CNS, in the assay with DU-145 prostate, in the assay on HCT-15 colon, with OVCAR-4 ovarian and in the assay on HCC-2998 colon was more than 100 µM throughout. Besides, the TGI in the assay on NCI-H460 lung was more than 100 µM.

On to `C=C(Cl)CN1c2ccccc2C=Cc2ccccc21`, for which the TGI was 50.8 µM with OVCAR-5 ovarian; 52.4 µM in the assay with LOX IMVI melanoma; 44.7 µM with MDA-MB-435; 40.6 µM with SK-MEL-2 melanoma; more than 100 µM in the assay on NCI-H23 lung; 57.3 µM with SN12C renal. Besides, the TGI with SNB-19 CNS is more than 100 µM; in the assay on DU-145 prostate, more than 100 µM; in the assay with HCT-15 colon it was more than 100 µM; in the assay on OVCAR-4 ovarian, 97.9 µM; with HCC-2998 colon, 33.7 µM; with NCI-H460 lung, 16.2 µM.

On to `Cc1oc2nc(N(C)C)n3cnnc3c2c1C`, for which the TGI in the assay on OVCAR-5 ovarian, in the assay with MDA-MB-435, in the assay on SK-MEL-2 melanoma, in the assay on HL-60(TB) leukemia, in the assay on NCI-H23 lung and in the assay with SN12C renal was more than 100 µM in each case. Also, the TGI in the assay with SNB-19 CNS, with DU-145 prostate, in the assay on HCT-15 colon, with OVCAR-4 ovarian, with HCC-2998 colon and in the assay with NCI-H460 lung was more than 100 µM throughout.

For the compound `O=C(Cn1c(=O)oc2ccc(C(=O)c3cccc(Cl)c3)cc21)c1ccccc1`, the TGI in the assay with OVCAR-5 ovarian, in the assay on LOX IMVI melanoma, in the assay with MDA-MB-435, with SK-MEL-2 melanoma, with HL-60(TB) leukemia and with NCI-H23 lung was more than 100 µM throughout. Moreover, the TGI was more than 100 µM in the assay on SN12C renal; more than 100 µM in the assay with DU-145 prostate; more than 100 µM in the assay with HCT-15 colon; more than 100 µM in the assay on OVCAR-4 ovarian; 78.6 µM in the assay on HCC-2998 colon; more than 100 µM with NCI-H460 lung.

Turning to `Cc1cc(O)c(C(C)C)cc1C(=S)Nc1ccc(Cl)cc1`, the TGI with OVCAR-5 ovarian was found to be 28.3 µM; with LOX IMVI melanoma, 24 µM; with MDA-MB-435, 23.1 µM; in the assay with SK-MEL-2 melanoma, 27.8 µM; in the assay on HL-60(TB) leukemia, 24.9 µM; with NCI-H23 lung it was 17.7 µM. Further, the TGI with DU-145 prostate is 31.5 µM; in the assay on HCT-15 colon, 25.1 µM; with OVCAR-4 ovarian, 20.2 µM; with HCC-2998 colon, 33 µM; with NCI-H460 lung, 27.4 µM.

Regarding `CC1=NN2CCC(=O)N=C2S1`, the TGI with OVCAR-5 ovarian, in the assay on LOX IMVI melanoma, with MDA-MB-435, in the assay on SK-MEL-2 melanoma, with HL-60(TB) leukemia and with NCI-H23 lung was more than 100 µM throughout. Further, the TGI in the assay on SN12C renal, in the assay on SNB-19 CNS, with DU-145 prostate, in the assay with HCT-15 colon, in the assay with OVCAR-4 ovarian and in the assay on NCI-H460 lung was more than 100 µM throughout.
